Laboratory results published in PubChem BioAssay AID1963969 (Molecular Pharmacology Branch, DTP, NCI, 2024).

Test system: 817829-284-R-J1-PDC multi-cell spheroid viability
Experiment: Anticancer human tumor 817829-284-R-J1-PDC patient-derived colon adenocarcinoma cell line growth inhibition [PI3K]
Settings: for IC50: curve of first compound; for viability, T/C: stronger effect = lower value
Outline: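 Spheroid viability read-out. Co-cultures contained the tumor line plus HUVEC and human MSCs. Each agent was paired with a PI3K inhibitor (inavolisib, alpelisib, duvelisib, copanlisib) across half-log dilutions starting at clinical Cmax, or at 10 microM when Cmax was unknown.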

[1] = second compound 0.00316 µM, first compound 0.0316 µM
[2] = second compound 0.00316 µM, first compound 0.1 µM
[3] = second compound 0.00316 µM, first compound 0.316 µM
[4] = second compound 0.00316 µM, first compound 1 µM
[5] = second compound 0.00316 µM, first compound 3.16 µM
[6] = second compound 0.00316 µM, first compound 10 µM
[7] = second compound 0.01 µM, first compound 0.0316 µM
[8] = second compound 0.01 µM, first compound 0.1 µM
[9] = second compound 0.01 µM, first compound 0.316 µM
[10] = second compound 0.01 µM, first compound 1 µM
[11] = second compound 0.01 µM, first compound 3.16 µM
[12] = second compound 0.01 µM, first compound 10 µM
[13] = second compound 0.0316 µM, first compound 0.0316 µM
[14] = second compound 0.0316 µM, first compound 0.1 µM
[15] = second compound 0.0316 µM, first compound 0.316 µM
[16] = second compound 0.0316 µM, first compound 1 µM
[17] = second compound 0.0316 µM, first compound 3.16 µM
[18] = second compound 0.0316 µM, first compound 10 µM
[19] = second compound 0.1 µM, first compound 0.0316 µM
[20] = second compound 0.1 µM, first compound 0.1 µM
[21] = second compound 0.1 µM, first compound 0.316 µM
[22] = second compound 0.1 µM, first compound 1 µM
[23] = second compound 0.1 µM, first compound 3.16 µM
[24] = second compound 0.1 µM, first compound 10 µM
[25] = second compound 0.316 µM, first compound 0.0316 µM
[26] = second compound 0.316 µM, first compound 0.1 µM
[27] = second compound 0.316 µM, first compound 0.316 µM
[28] = second compound 0.316 µM, first compound 1 µM
[29] = second compound 0.316 µM, first compound 3.16 µM
[30] = second compound 0.316 µM, first compound 10 µM
[31] = second compound 1 µM, first compound 0.0316 µM
[32] = second compound 1 µM, first compound 0.1 µM
[33] = second compound 1 µM, first compound 0.316 µM
[34] = second compound 1 µM, first compound 1 µM
[35] = second compound 1 µM, first compound 3.16 µM
[36] = second compound 1 µM, first compound 10 µM
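Further: spheroids exposed to agents for seven days before readout.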
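Wherever viability, T/C is given: percent of vehicle DMSO control viability which is 100%.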

Question: For `C=CC(=O)N1CCN(c2nc(=O)n(-c3c(C)ccnc3C(C)C)c3nc(-c4c(O)cccc4F)c(F)cc23)C(C)C1` (centres undefined) + CC(Nc1ccc2c(c1)OCCn1cc(N3C(=O)OCC3C(F)F)nc1-2)C(N)=O, which IC50 (second compound 0.00316 µM) is on record?
Answer: The IC50 was greater than 10 µM.

Question: And the IC50 (second compound 0.01 µM)?
Answer: The IC50 was greater than 10 µM.

Question: And the IC50 (second compound 0.0316 µM)?
Answer: The IC50 was greater than 10 µM.

Question: And the IC50 (second compound 0.1 µM)?
Answer: Its IC50 is 6.65 µM.

Question: What about the IC50 (second compound 0.316 µM) of the same compound?
Answer: Its IC50 is greater than 10 µM.

Question: What about the IC50 (second compound 1 µM) of the same compound?
Answer: Its IC50 is greater than 10 µM.

Question: What about the viability, T/C [1] of the same compound?
Answer: Its viability, T/C is 91.4%.

Question: What about the viability, T/C [2] of the same compound?
Answer: The viability, T/C was 93.3%.

Question: What about the viability, T/C [3] of the same compound?
Answer: Its viability, T/C is 82.9%.

Question: What about the viability, T/C [4] of the same compound?
Answer: The viability, T/C was 71.9%.

Question: And the viability, T/C [5]?
Answer: The viability, T/C was 77.9%.

Question: What about the viability, T/C [6] of the same compound?
Answer: The viability, T/C was 55.4%.

Question: And the viability, T/C [7]?
Answer: The viability, T/C was 62.7%.

Question: And the viability, T/C [8]?
Answer: The viability, T/C was 57.7%.

Question: And the viability, T/C [9]?
Answer: Its viability, T/C is 83.9%.

Question: What about the viability, T/C [10] of the same compound?
Answer: The viability, T/C was 78.6%.

Question: And the viability, T/C [11]?
Answer: The viability, T/C was 84.8%.

Question: And the viability, T/C [12]?
Answer: Its viability, T/C is 38.9%.

Question: And the viability, T/C [13]?
Answer: The viability, T/C was 53.8%.

Question: And the viability, T/C [14]?
Answer: The viability, T/C was 112%.

Question: And the viability, T/C [15]?
Answer: The viability, T/C was 108%.

Question: And the viability, T/C [16]?
Answer: Its viability, T/C is 51.1%.

Question: And the viability, T/C [17]?
Answer: Its viability, T/C is 64%.

Question: And the viability, T/C [18]?
Answer: The viability, T/C was 73.7%.

Question: And the viability, T/C [19]?
Answer: Its viability, T/C is 64.7%.

Question: What about the viability, T/C [20] of the same compound?
Answer: Its viability, T/C is 92.2%.

Question: What about the viability, T/C [21] of the same compound?
Answer: Its viability, T/C is 79.2%.

Question: And the viability, T/C [22]?
Answer: The viability, T/C was 84.2%.

Question: And the viability, T/C [23]?
Answer: Its viability, T/C is 78.9%.

Question: What about the viability, T/C [24] of the same compound?
Answer: The viability, T/C was 34.1%.

Question: What about the viability, T/C [25] of the same compound?
Answer: Its viability, T/C is 60.1%.

Question: What about the viability, T/C [26] of the same compound?
Answer: The viability, T/C was 75.9%.

Question: What about the viability, T/C [27] of the same compound?
Answer: The viability, T/C was 67.4%.

Question: What about the viability, T/C [28] of the same compound?
Answer: The viability, T/C was 52.6%.

Question: What about the viability, T/C [29] of the same compound?
Answer: The viability, T/C was 68%.

Question: What about the viability, T/C [30] of the same compound?
Answer: The viability, T/C was 44.6%.

Question: And the viability, T/C [31]?
Answer: Its viability, T/C is 61.6%.

Question: What about the viability, T/C [32] of the same compound?
Answer: The viability, T/C was 53.9%.

Question: What about the viability, T/C [33] of the same compound?
Answer: The viability, T/C was 79.3%.

Question: What about the viability, T/C [34] of the same compound?
Answer: The viability, T/C was 57.3%.

Question: What about the viability, T/C [35] of the same compound?
Answer: Its viability, T/C is 62.7%.

Question: And the viability, T/C [36]?
Answer: Its viability, T/C is 53.5%.

Question: Which results are given for `CC(Cn1ccc(-c2ccc(C#N)c(Cl)c2)n1)NC(=O)c1cc(C(C)O)[nH]n1` (centres undefined) + CC(Nc1ccc2c(c1)OCCn1cc(N3C(=O)OCC3C(F)F)nc1-2)C(N)=O?
Answer: IC50 (second compound 0.00316 µM): > 10 µM; IC50 (second compound 0.01 µM): 8.89 µM; IC50 (second compound 0.0316 µM): > 10 µM; IC50 (second compound 0.1 µM): > 10 µM; IC50 (second compound 0.316 µM): > 10 µM; IC50 (second compound 1 µM): > 10 µM; viability, T/C [1]: 91.8%; viability, T/C [2]: 127%; viability, T/C [3]: 99%; viability, T/C [4]: 96.2%; viability, T/C [5]: 94.4%; viability, T/C [6]: 53.1%; viability, T/C [7]: 140%; viability, T/C [8]: 86.2%; viability, T/C [9]: 86.4%; viability, T/C [10]: 70.8%; viability, T/C [11]: 63.5%; viability, T/C [12]: 57.4%; viability, T/C [13]: 67.4%; viability, T/C [14]: 96.8%; viability, T/C [15]: 78%; viability, T/C [16]: 78.6%; viability, T/C [17]: 74.1%; viability, T/C [18]: 59.9%; viability, T/C [19]: 81.5%; viability, T/C [20]: 114%; viability, T/C [21]: 62.3%; viability, T/C [22]: 117%; viability, T/C [23]: 79.5%; viability, T/C [24]: 55.3%; viability, T/C [25]: 77.1%; viability, T/C [26]: 66.1%; viability, T/C [27]: 76.8%; viability, T/C [28]: 58.7%; viability, T/C [29]: 110%; viability, T/C [30]: 46.4%; viability, T/C [31]: 75.5%; viability, T/C [32]: 39%; viability, T/C [33]: 65.6%; viability, T/C [34]: 72.9%; viability, T/C [35]: 60%; viability, T/C [36]: 50.8%
